In patent US11230540B2, “Substituted triazole derivatives and uses thereof” (Bayer Pharma Aktiengesellschaft, priority 2017, dated 2022):
Where a name gives a salt, the structure may show the parent alone.

Legend:
[1] = molecular target: T1, human V2 receptor (Homo sapiens, UniProt P30518); experiment: Cellular in vitro assay for vasopressin receptor activity, V2 receptor cell line (CRE-luciferase); type: cell-based; details: CHO cell line transfected with human V2 receptor; [Arg8]-vasopressin at EC50 concentration; read-out: IC50 hV2
T1 construct: expressed in transfected cells; host or cells: CHO K1 (Chinese hamster ovary) expressing firefly luciferase under a CRE-responsive promoter
Method in brief: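 CHO K1 cells stably expressing human V2 receptor with CRE-driven firefly luciferase, plated the day before. Test compounds at various concentrations added together with [Arg^8]-vasopressin at EC50 concentration, 3 h at 37° C, 5% CO2. Luminescence read after Triton lysis and luciferin addition; IC50 values reported.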

[2] = molecular target: T2, human V1a receptor (Homo sapiens, UniProt P37288); experiment: Cellular in vitro assay for vasopressin receptor activity, V1a receptor cell line (aequorin luminescence); type: cell-based; details: for IC50: CHO cell line transfected with human V1a receptor, [Arg8]-vasopressin at EC50 concentration, read-out: IC50 hV1a; for ratio IC50 hV2/hV1a: selectivity ratio of the IC50 values hV2/hV1a
T2 construct: expressed in transfected cells; host or cells: CHO K1 (Chinese hamster ovary), also stably transfected with a modified aequorin
Method in brief: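 Recombinant CHO K1 cells stably expressing human V1a receptor and aequorin, loaded with coelenterazine, were exposed to test compounds for 10 minutes before [Arg^8]-vasopressin at EC50 concentration. Calcium-triggered luminescence was measured immediately, giving IC50 values.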

T2 sequence (P37288 whole entry): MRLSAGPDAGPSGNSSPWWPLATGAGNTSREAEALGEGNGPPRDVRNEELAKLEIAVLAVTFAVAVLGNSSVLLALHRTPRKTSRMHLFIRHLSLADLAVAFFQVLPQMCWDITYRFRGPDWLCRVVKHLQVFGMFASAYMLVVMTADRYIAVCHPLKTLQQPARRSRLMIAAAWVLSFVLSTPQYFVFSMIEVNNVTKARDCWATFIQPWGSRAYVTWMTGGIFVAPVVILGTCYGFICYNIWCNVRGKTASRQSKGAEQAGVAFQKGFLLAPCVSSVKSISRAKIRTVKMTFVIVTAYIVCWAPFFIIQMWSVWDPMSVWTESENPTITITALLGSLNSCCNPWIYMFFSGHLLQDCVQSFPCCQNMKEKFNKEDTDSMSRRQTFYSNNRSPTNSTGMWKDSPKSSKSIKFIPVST
T1 sequence (P30518 whole entry): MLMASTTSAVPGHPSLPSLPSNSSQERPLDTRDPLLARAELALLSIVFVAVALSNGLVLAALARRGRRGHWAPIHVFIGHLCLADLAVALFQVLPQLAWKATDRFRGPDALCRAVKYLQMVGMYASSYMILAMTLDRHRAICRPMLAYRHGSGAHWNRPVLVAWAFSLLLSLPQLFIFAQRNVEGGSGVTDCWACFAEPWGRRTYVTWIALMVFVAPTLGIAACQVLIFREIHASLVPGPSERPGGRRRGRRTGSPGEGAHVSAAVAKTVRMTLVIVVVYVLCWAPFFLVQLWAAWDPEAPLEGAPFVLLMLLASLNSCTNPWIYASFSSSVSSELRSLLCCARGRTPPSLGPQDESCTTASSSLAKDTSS

SMILES	IC50 [1] [nM]	IC50 [2] [nM]	ratio IC50 hV2/hV1a [2]
CC(C)(N)CNC(=O)c1nc(Cn2nc(-c3ccc(Cl)cc3)n(C[C@H](O)C(F)(F)F)c2=O)nn1-c1ncccc1C(F)(F)F [Example 46, N-(2-Amino-2-methylpropyl)-3-({3-(4-chlorophenyl)-5-oxo-4-[(2S)-3,3,3-trifluoro-2-hydroxypropyl]-4,5-dihydro-1H-1,2,4-triazol-1-yl}methyl)-1-[3-(trifluoromethyl)pyridin-2-yl]-1H1,2,4-triazole-5-carboxamide]	1470	288	5.1
CC(C)(C)NC(=O)c1nc(Cn2nc(-c3ccc(Cl)cc3)n(C[C@H](O)C(F)(F)F)c2=O)nn1-c1ncccc1C(F)(F)F [Example 48, N-Tert-butyl-3-({3-(4-chlorophenyl)-5-oxo-4-[(2S)-3,3,3-trifluoro-2-hydroxypropyl]-4,5-dihydro-1H-1,2,4-triazol-1-yl}methyl)-1-[3-(trifluoromethyl)pyridin-2-yl]-1H-1,2,4-triazole-5-carboxamide]	41	1.31	31.3
CC1(C)CN(C(=O)c2nc(Cn3nc(-c4ccc(Cl)cc4)n(C[C@H](O)C(F)(F)F)c3=O)nn2-c2ncccc2C(F)(F)F)CCN1 [Example 49, 5-(4-Chlorophenyl)-2-({5-(3,3-dimethylpiperazine-1-carbonyl)-1-[3-(trifluoromethyl)pyridin-2-yl]-1H-1,2,4-triazol-3-yl}methyl)-4-[(2S)-3,3,3-trifluoro-2-hydroxypropyl]-2,4-dihydro-3H-1,2,4-triazol-3-one hydrochloride]	478	2.5	191.0
CC(C)(C)CNC(=O)c1nc(Cn2nc(-c3ccc(Cl)cc3)n(C[C@H](O)C(F)(F)F)c2=O)nn1-c1ncccc1C(F)(F)F [Example 50, 3-({3-(4-Chlorophenyl)-5-oxo-4-[(2S)-3,3,3-trifluoro-2-hydroxypropyl]-4,5-dihydro-1H-1,2,4-triazol-1-yl}methyl)-N-(2,2-dimethylpropyl)-1-[3-(trifluoromethyl)pyridin-2-yl]-1H-1,2,4-triazole-5-carboxamide]	70	0.7	100.0
CC1(CNC(=O)c2nc(Cn3nc(-c4ccc(Cl)cc4)n(C[C@H](O)C(F)(F)F)c3=O)nn2-c2ncccc2C(F)(F)F)COC1 [Example 53, 3-({3-(4-Chlorophenyl)-5-oxo-4-[(2S)-3,3,3-trifluoro-2-hydroxypropyl]-4,5-dihydro-1H-1,2,4-triazol-1-yl}methyl)-N-[(3-methyloxetan-3-yl)methyl]-1-[3-(trifluoromethyl)pyridin-2-yl]-1H1,2,4-triazole-5-carboxamide]	63	0.64	98.4
O=C(NCCC(F)(F)F)c1nc(Cn2nc(-c3ccc(Cl)cc3)n(C[C@H](O)C(F)(F)F)c2=O)nn1-c1ncccc1C(F)(F)F [Example 54, 3-({3-(4-Chlorophenyl)-5-oxo-4-[(2S)-3,3,3-trifluoro-2-hydroxypropyl]-4,5-dihydro-1H-1,2,4-triazol-1-yl}methyl)-1-[3-(trifluoromethyl)pyridin-2-yl]-N-(3,3,3-trifluoropropyl)-1H-1,2,4-triazole-5-carboxamide]	83.5	0.78	107.1
O=C(NCC1(O)CC1)c1nc(Cn2nc(-c3ccc(Cl)cc3)n(C[C@H](O)C(F)(F)F)c2=O)nn1-c1ncccc1C(F)(F)F [Example 55, 3-({3-(4-Chlorophenyl)-5-oxo-4-[(2S)-3,3,3-trifluoro-2-hydroxypropyl]-4,5-dihydro-1H-1,2,4-triazol-1-yl}methyl)-N-[(1-hydroxycyclopropyl)methyl]-1-[3-(trifluoromethyl)pyridin-2-yl]-1H1,2,4-triazole-5-carboxamide]	72.5	1.54	47.2
CC1(C)CN(C(=O)c2nc(Cn3nc(-c4ccc(Cl)cc4)n(C[C@H](O)C(F)(F)F)c3=O)nn2-c2ncccc2C(F)(F)F)CCO1 [Example 56, 5-(4-Chlorophenyl)-2-({5-(2,2-dimethylmorpholine-4-carbonyl)-1-[3-(trifluoromethyl)pyridin-2-yl]-1H-1,2,4-triazol-3-yl}methyl)-4-[(2S)-3,3,3-trifluoro-2-hydroxypropyl]-2,4-dihydro-3H-1,2,4-triazol-3-one]	235	1.1	214.6
CC1(O)CCN(C(=O)c2nc(Cn3nc(-c4ccc(Cl)cc4)n(C[C@H](O)C(F)(F)F)c3=O)nn2-c2ncccc2C(F)(F)F)C1 (stereo partly drawn) [Example 57, 5-(4-Chlorophenyl)-2-({5-[(35)-3-hydroxy-3-methylpyrrolidine-1-carbonyl]-1-[3-(trifluoromethyl)pyridin-2-yl]-1H-1,2,4-triazol-3-yl}methyl)-4-[(2S)-3,3,3-trifluoro-2-hydroxypropyl]-2,4-dihydro-3H-1,2,4-triazol-3-one]	440	2.75	160.0
O=C(c1nc(Cn2nc(-c3ccc(Cl)cc3)n(C[C@H](O)C(F)(F)F)c2=O)nn1-c1ncccc1C(F)(F)F)N1CC(O)(C(F)(F)F)C1 [Example 58, 5-(4-Chlorophenyl)-2-({5-[3-hydroxy-3-(trifluoromethyl)azetidine-1-carbonyl]-1-[3-(trifluoromethyl)pyridin-2-yl]-1H-1,2,4-triazol-3-yl}methyl)-4-[(2S)-3,3,3-trifluoro-2-hydroxypropyl]-2,4-dihydro-3H-1,2,4-triazol-3-one]	435	1.35	322.2

Stronger by IC50 [1], values ahead:

IC50 [1] [nM]	IC50 [2] [nM]	ratio IC50 hV2/hV1a [2]	SMILES
38.5	0.92	41.8	O=C(NCC(F)(F)F)c1nc(Cn2nc(-c3ccc(Cl)cc3)n(C[C@H](O)C(F)(F)F)c2=O)nn1-c1ncccc1C(F)(F)F [Example 47, 3-({3-(4-Chlorophenyl)-5-oxo-4-[(2S)-3,3,3-trifluoro-2-hydroxypropyl]-4,5-dihydro-1H-1,2,4-triazol-1-yl}methyl)-N-(2,2,2-trifluoroethyl)-1-[3-(trifluoromethyl)pyridin-2-yl]-1H-1,2,4-triazole-5-carboxamide]
38.5	0.47	82.8	CC(C)(O)CNC(=O)c1nc(Cn2nc(-c3ccc(Cl)cc3)n(C[C@H](O)C(F)(F)F)c2=O)nn1-c1ncccc1C(F)(F)F [Example 52, 3-({3-(4-Chlorophenyl)-5-oxo-4-[(2S)-3,3,3-trifluoro-2-hydroxypropyl]-4,5-dihydro-1H-1,2,4-triazol-1-yl}methyl)-N-(2-hydroxy-2-methylpropyl)-1-[3-(trifluoromethyl)pyridin-2-yl]-1H-1,2,4-triazole-5-carboxamide]
8.63	1.21	7.2	CON(C)C(=O)c1nc(Cn2nc(-c3ccc(Cl)cc3)n(C[C@H](O)C(F)(F)F)c2=O)nn1-c1ccccc1Cl [Example 44, 1-(2-Chlorophenyl)-3-({3-(4-chlorophenyl)-5-oxo-4-[(2S)-3,3,3-trifluoro-2-hydroxypropyl]-4,5-dihydro-1H-1,2,4-triazol-1-yl}methyl)-N-methoxy-N-methyl-1H-1,2,4-triazole-5-carboxamide]
3.66	0.64	5.7	CON(C)C(=O)c1nc(Cn2nc(-c3ccc(Cl)cc3)n(C[C@H](O)C(F)(F)F)c2=O)nn1-c1cccc(Cl)c1 [Example 45, 1-(3-Chlorophenyl)-3-({3-(4-chlorophenyl)-5-oxo-4-[(2S)-3,3,3-trifluoro-2-hydroxypropyl]-4,5-dihydro-1H-1,2,4-triazol-1-yl}methyl)-N-methoxy-N-methyl-1H-1,2,4-triazole-5-carboxamide]
